Target: T1, CDK2 (Homo sapiens, UniProt P24941)
T1 construct: endogenous in cells; host or cells: MKN1 cells
Test: CDK2 degradation in MKN1 cells (AlphaLISA)
Type: cell-based
Set-up: key to CDK2 degradation 14 h: Mean external-Abs DC50 (nM): A (<100 nM); B (≥100-500 nM); C (>500-1000 nM); D (>1000 nM); E (not achieved)
Conditions: 14 h incubation; for DC50: read-out: CDK2 degradation 14 h: Mean external-Abs DC50
Protocol: Degradation of CDK2 in MKN1 cells was measured using AlphaLISA technology (PerkinElmer ALSU-TCDK2-A10K). MKN1 cells were maintained in RPMI1640 medium containing 10% FBS+1× penn/strep. Cells were seeded in 96-well plates (Corning 3599) at a density of 2e4 cells per well in 80 μL of fresh complete growth medium. Cells were incubated overnight at 37° C., 5% CO2. Compounds were then added to the cell assay plates with a final top concentration of 10 μM in a 1:5 dilution series with a total of 11 doses (0.001 nM-10 μM). The final volume per well was 160 μL and the final DMSO concentration was 0.1%. Additionally, wells containing no cells and only complete growth medium were also maintained on the cell assay plates (‘no cell’ wells) and processed along with experimental wells. After 14 hour-incubation at 37° C., 5% CO2, the medium was removed and the cells were washed once with 100 μL of 1×PBS. Following removal of PBS, 40 μL of 1× Lysis Buffer containing 1× protease and phosphatase inhibitors (Roche 4693116001; Roche 4906837001) were added to each well. The cell assay plate was agitated on a plate shaker at 350 rpm for 10 minutes at room temperature. 10 μL of each cell lysate were transferred to a 384-well plate (PerkinElmer 6007290). 10 μL of control lysates (from PerkinElmer ALSU-TCDK2-A10K kit) were added to separate wells to generate a standard curve. Activation Buffer was prepared by diluting 25-fold in combined Reaction Buffer 1 and Reaction Buffer 2. Acceptor Beads were diluted 50-fold in combined Reaction Buffers. 5 μL of Acceptor Mix were added to each well. The plate was sealed with Topseal-Aadhesive film, covered with foil, and incubated in the dark for 1 hour at room temperature. Under subdued light, the Donor Beads were diluted 50-fold in Dilution Buffer. 5 μL of Donor Mix were added to each well under subdued light. The plate was sealed with Topseal-A adhesive film, covered with foil, and incubated in the dark for 1 hour at room temperature. Under subdued light, the plates were analyzed on an EnVision Microplate Reader (PerkinElmer Model 2009-0030). The average signal from ‘no cell’ wells was subtracted from the signal in experimental wells prior to calculating Alpha signal for test compounds and negative control (0.100 DMSO). The data were analyzed using Xlfit (v5.3. 1.3) and the dose-dependent CDK2 degradation data were fit using a four-parameter logistic model to calculate DC50.

SMILES	CDK2 degradation 14 h: Average Dmax %	DC50 [nM]	CDK2 degradation 14 h: Mean external-Abs DC50 (nM)
[2H]C(C)(COC1CCC(CN2CCN(c3ccc4c(c3F)n(C)c(=O)n4C3CCC(=O)NC3=O)CC2)CC1)NS(=O)(=O)c1ccc(Nc2ncc(C(F)(F)F)c(C3CCC(C)(O)CC3)n2)c(C)c1 (racemic) [I-859]	A (A (>75% o))		
CC(C1CCN(c2ccc(C3CCC(=O)NC3=O)c(F)c2)CC1)N1CCC(NS(=O)(=O)c2ccc(Nc3ncc(C(F)(F)F)c(N4CCCC(C)(O)C4)n3)c(F)c2)C(F)C1 (centres unmarked) [I-1067]	A (A (>75% o))	< 100	
Cc1cc(S(=O)(=O)NC2CCN(CC3CCN(c4ccc(C5CCC(=O)NC5=O)cc4F)CC3)CC2F)ccc1Nc1ncc(C(F)(F)F)c(N2CCCC(C)(O)C2)n1 (centres unmarked) [I-1140]	A (A (>75% o))	< 100	
Cc1cc(S(=O)(=O)NC2CCC(CN3CCN(c4ccc(C5CCC(=O)NC5=O)cc4F)C(C)C3)CC2)ccc1Nc1ncc(C(F)(F)F)c(N2CCCC(C)(O)C2)n1 (centres unmarked) [I-1137]	A (A (>75% o))	< 100	
Cc1cc(S(=O)(=O)C2CC3(CCN(CC4CCN(c5cccc(OC6CCC(=O)NC6=O)c5)CC4)CC3)C2)ccc1Nc1ncc2cc(Cl)c(=O)n(C3CCCC3)c2n1 (centres unmarked) [I-74]	A (A (>75% o))	100 to 500	
Cc1cc(S(=O)(=O)NC2CCC(CN3CCN(c4cc(F)cc(NC5CCC(=O)NC5=O)c4)CC3)CC2)ccc1Nc1ncc(C(F)(F)F)c(N2CCCC(C)(O)C2)n1 (centres unmarked) [I-1122]	A (A (>75% o))	< 100	
CC1(O)CCCN(c2nc(Nc3ccc(S(=O)(=O)NC4CCC(CN5CCN(c6ccc(C7CCC(=O)NC7=O)cc6F)CC5)CC4)cc3C(F)F)ncc2C(F)(F)F)C1 (centres unmarked) [I-1113]	A (A (>75% o))	< 100	
Cc1cc(S(=O)(=O)C2CCN(CCN3CCN(c4cccc5c4n(C)c(=O)n5C4CCC(=O)NC4=O)CC3)CC2)ccc1Nc1ncc2cc(Cl)c(=O)n(C(C)C)c2n1 (centres unmarked) [I-7]	A (A (>75% o))	< 100	
Cc1cc(S(=O)(=O)NC2(C)CC(N3CCN(CC4CCN(c5ccc6c(c5F)n(C)c(=O)n6C5CCC(=O)NC5=O)CC4)CC3)C2)ccc1Nc1ncc(C(F)(F)F)c(N2CCCC(C)(O)C2)n1 (centres unmarked) [I-666]	A (A (>75% o))	< 100	
Cc1cc(S(=O)(=O)NC2CCC(N3CCN(CC4CN(c5cccc6c5n(C)c(=O)n6C5CCC(=O)NC5=O)C4)CC3)CC2)ccc1Nc1ncc(C(F)(F)F)c(N2CCCC(C)(O)C2)n1 (centres unmarked) [I-686]	A (A (>75% o))	< 100	
CC1(O)CCCN(c2nc(Nc3ccc(S(=O)(=O)NC4CCC(CN5CCN(c6ccc(C7CCC(=O)NC7=O)c(F)c6)CC5)CC4)cc3OC(F)F)ncc2C(F)(F)F)C1 (centres unmarked) [I-1115]	A (A (>75% o))	100 to 500	
Cc1cc(S(=O)(=O)C2CC3(CCN(CC4CCN(c5cccc(C6CCC(=O)NC6=O)c5)CC4)CC3)C2)ccc1Nc1ncc2cc(Cl)c(=O)n(C3CCCC3)c2n1 (centres unmarked) [I-80]	C (C (>25% -50%))		E
CC1(O)CCCN(c2nc(Nc3ccc(S(=O)(=O)N4CCN(CC5CCC(Oc6cccc(C7CCC(=O)NC7=O)c6)CC5)CC4)cc3C(F)F)ncc2C(F)(F)F)C1 (centres unmarked) [I-1043]	D (D (<25%))	> 1000	
Cc1nn(C2CCC(=O)NC2=O)c2ccc(N3CCN(CC4CCC(NS(=O)(=O)c5ccc(Nc6ncc(C(F)(F)F)c(N7CCCC(C)(O)C7)n6)c(F)c5)CC4)CC3)cc12 (centres unmarked) [I-1065]	A (A (>75% o))	< 100	
Cc1cc(S(=O)(=O)N2CCC(OCC#Cc3cccc4c3n(C)c(=O)n4C3CCC(=O)NC3=O)CC2)ccc1Nc1ncc2ccc(=O)n(C3CCCC3)c2n1 (centres unmarked) [I-447]	D (D (<25%))	> 1000	
CC1(O)CCCN(c2nc(Nc3ccc(S(=O)(=O)N4CCN(CC5CCC(Oc6ccc(C7CCC(=O)NC7=O)cc6)CC5)CC4)cc3C(F)F)ncc2C(F)(F)F)C1 (centres unmarked) [I-1044]	D (D (<25%))	> 1000	
Cc1cc(S(=O)(=O)C2CCN(CCN3CCN(c4cccc5c4n(C)c(=O)n5C4CCC(=O)NC4=O)CC3)CC2)ccc1Nc1ncc(C(F)(F)F)c(-c2cnn(C)c2)n1 (centres unmarked) [I-61]	A (A (>75% o))	< 100	

SMILES	CDK2 degradation 14 h: Average Dmax %	DC50 [nM]	CDK2 degradation 14 h: Mean external-Abs DC50 (nM)
Cc1cc(S(=O)(=O)NCCOCCOCCCc2ccc3c(c2)n(C)c(=O)n3C2CCC(=O)NC2=O)ccc1Nc1ncc2ccc(=O)n(C3CCCC3)c2n1 (centres unmarked) [I-475]	A (A (>75% o))	< 100	
Cc1cc(S(=O)(=O)NCCCCCCc2cccc3c2n(C)c(=O)n3C2CCC(=O)NC2=O)ccc1Nc1ncc2cc(C(F)F)c(=O)n(C3CCCC3(C)O)c2n1 (centres unmarked) [I-976]	B (B (>50% -75%))	< 100	
O=C1CCC(c2ccc(N3CCN(C[C@H]4CC[C@H](NS(=O)(=O)c5ccc(Nc6ncc(C(F)(F)F)c(-c7cnn(C8CCOCC8)c7)n6)c(F)c5)CC4)CC3)cc2Cl)C(=O)N1 (some centres unmarked) [I-818]	A (A (>75% o))	< 100	
CC1(O)CCCN(c2nc(Nc3ccc(S(=O)(=O)NC4CCC(CN5CCN(c6ccc(C7CCC(=O)NC7=O)c(F)c6)CC5)CC4)cc3F)ncc2C(F)(F)F)C1 (centres unmarked) [I-1117]	A (A (>75% o))	< 100	
Cc1cc(S(=O)(=O)NCCOCCOCCOCCOCCNc2cccc3c2C(=O)N(C2CCC(=O)NC2=O)C3=O)ccc1Nc1ncc2cc(C(F)F)c(=O)n(C3CCCC3(C)O)c2n1 (centres unmarked) [I-483]	A (A (>75% o))	< 100	
Cc1cc(S(=O)(=O)NCCOC2CCC(N(C)CC3CCN(c4ccc5c(c4)n(C)c(=O)n5C4CCC(=O)NC4=O)CC3)CC2)ccc1Nc1ncc2ccc(=O)n(C3CCCC3)c2n1 (centres unmarked) [I-469]	A (A (>75% o))	< 100	
Cc1cc(S(=O)(=O)C2CC3(CCN(C(=O)COC4CN(c5ccc6c(c5F)n(C)c(=O)n6C5CCC(=O)NC5=O)C4)CC3)C2)ccc1Nc1ncc2ccc(=O)n(C3CCCC3)c2n1 (centres unmarked) [I-259]	D (D (<25%))	> 1000	
COCc1cc(S(=O)(=O)NC2CCC(CN3CCN(c4ccc(C5CCC(=O)NC5=O)c(F)c4)CC3)CC2)ccc1Nc1ncc(C(F)(F)F)c(N2CCCC(C)(O)C2)n1 (centres unmarked) [I-1070]	A (A (>75% o))	< 100	
Cc1cc(S(=O)(=O)NC2(C)CCC(CN3CCN(c4ccc(C5CCC(=O)NC5=O)cc4F)CC3)CC2)ccc1Nc1ncc(C(F)(F)F)c(N2CCC[C@](C)(O)C2)n1 (some centres unmarked) [I-803]	A (A (>75% o))	< 100	
Cc1cc(S(=O)(=O)N2CCC(OCCCc3ccc4c(c3)n(C)c(=O)n4C3CCC(=O)NC3=O)CC2)ccc1Nc1ncc2ccc(=O)n(C3CCCC3)c2n1 (centres unmarked) [I-453]	D (D (<25%))	> 1000	
Cc1cc(S(=O)(=O)C2CC3(CCN(CC4CCN(c5ccc(NC6CCC(=O)NC6=O)cc5F)CC4)CC3)C2)ccc1Nc1ncc2cc(Cl)c(=O)n(C3CCCC3)c2n1 (centres unmarked) [I-36]	B (B (>50% -75%))	< 100	
Cc1cc(S(=O)(=O)C2CC3(CCN(CC4CCN(c5ccc6c(c5F)n(C)c(=O)n6C5CCC(=O)NC5=O)CC4)CC3)C2)ccc1Nc1ncc(C(F)(F)F)c(N2CCC(C)C(C)(O)C2)n1 (centres unmarked) [I-849]	B (B (>50% -75%))	< 100	
CC1(O)CCCN(c2nc(Nc3ccc(S(=O)(=O)NC4CCC(CN5CCN(c6ccc(C7CCC(=O)NC7=O)c(Cl)c6)CC5)CC4)cc3C(F)(F)F)ncc2C(F)(F)F)C1 (centres unmarked) [I-1103]	C (C (>25% -50%))	> 1000	
Cc1cc(S(=O)(=O)NC(C)COC2CCC(CN3CCN(c4ccc5c(c4F)n(C)c(=O)n5C4CCC(=O)NC4=O)CC3)CC2)ccc1Nc1ncc(C(F)(F)F)c(N2CCC(C(C)(C)O)C2)n1 (centres unmarked) [I-858]	A (A (>75% o))	< 100	
Cc1cc(S(=O)(=O)NCCOCC2CCN(c3ccc(N4CCC(=O)NC4=O)cc3)CC2)ccc1Nc1ncc2cc(Cl)c(=O)n(C3CCCC3)c2n1 [I-409]	C (C (>25% -50%))	> 1000	
Cc1cc(S(=O)(=O)NC2(C)CCN(CC3CCN(c4ccc(C5CCC(=O)NC5=O)c(Cl)c4)CC3)CC2)ccc1Nc1ncc(C(F)(F)F)c(N2CCC[C@](C)(O)C2)n1 (some centres unmarked) [I-801]	A (A (>75% o))	< 100	

Reference: patent US20240173419A1, “CDK2 DEGRADERS AND USES THEREOF” (Kymera Therapeutics, Inc., priority 2022, published 2024)
